Measurements from patent US20120171286A1, “METHODS AND COMPOSITIONS FOR THE TREATMENT AND DIAGNOSIS OF STATIN-INDUCED MYOPATHY” (Beth Isreal Deaconess Medical Center, priority 2009, published 2012).

Key:
[1] = tested on: atrogin-1 mRNA; assay: Atrogin-1 mRNA level in myotubes by real-time PCR; assay type: cell-based, mouse; conditions: for atrogin-1 mRNA expression: 30 μM compound; for atrogin-1 expression in myotube culture: 2.5 μM compound alone, mRNA and protein (FIGS. 7C-7D)
[2] = tested on: myotubes derived from atrogin-1 wildtype mice (+/+); assay: Myotube diameter and morphology, myotubes from wildtype mice; assay type: cell-based, mouse; conditions: for fiber diameter in myotube culture: 2.5 μM compound alone
Description: (§1) Myotube fiber size: Size was quantified by measuring a total of 200 tube diameters as described in Sandri et al. (Cell 117:399-412, 2004). Briefly, muscle fiber size from four random fields at 100-fold magnification was measured using IMAGE software (Scion). All data were expressed as the mean +/− S.E.M.

[3] = tested on: atrogin-1 protein; assay: Atrogin-1 protein in myotubes by Western blotting; assay type: cell-based, mouse; conditions: for atrogin-1 protein expression: 30 μM compound
Description: Western blotting: Cultured cells after treatment were collected at specific times and solubilized in RIPA lysis buffer (50 mM Tris-HCl, pH 7.4, 150 mM NaCl 1% NP-40, 0.5% sodium deoxycholate, 0.1% SDS (Boston Bioproducts)), protease (Roche) and phosphatase (Sigma) inhibitor cocktail). Proteins were separated by SDS-PAGE, transferred to PVDF membranes and visualized by Western blotting using alkaline phosphatase-based CDP-star chemiluminescent detection according to the manufacturer's protocol (Applied Biosystems). Polyclonal anti-atrogin-1 antibody was used as described in Bdolah et al. (Am. J. Physiol. Reg. Integr. Comp. Physiol. 292:R971-R976, 2007). Anti-actin and dynein antibodies were from Santa Cruz Biotechnology.

[4] = tested on: zebrafish embryos; assay: Zebrafish embryo myofiber damage, myosin heavy chain staining; conditions: for fiber diameter in zebrafish embryos: 2.5 μM compound alone
Description: Zebrafish lines and maintenance: Adult zebrafish (Danio rerio) were maintained as described under standard laboratory conditions at 28.5° C. in a 14 hour light/10 hour dark cycle (Westerfield, in Institute of Neuroscience University of Oregon, Eugene, Oreg.). Developmental stages were determined by embryo morphology and hours post fertilization (hpf) (Kimmel et al., Dev. Dyn. 203:253-310, 1995). To examine the effects of lovastatin, the embryos at 20-24 hpf were immersed in the embryonic water (500 μM NaCl, 170 μM KCl, 330 μM CaCl2, and 330 μM MgSO4) at a concentration of 0.005-10 μM lovastatin (mevinolin) (Sigma) including 0.003% 1-phenyl-2-thiourea (Sigma) to inhibit pigmentation in a 24-well plate. After 32 hpf, the embryos were fixed by 4% paraformaldehyde in PBS.
Whole zebrafish antibody staining: Zebrafish embryos were fixed by 4% paraformaldehyde in PBS overnight. After fixation, the embryos were washed by PBS and stored for at least 1 hour at −20° C. in methanol, and permeabilized for 30 minutes at −20° C. in acetone. Embryos were incubated with blocking buffer (1% BSA, 0.1% Tween-20 in PBS), and incubated with diluted primary antibody, anti-slow twitch myosin F59 (1:100; Developmental Studies Hybridoma Bank (DSHB), Department of Biological Sciences, University of Iowa) (Crow et al., Dev. Biol. 118:333-342, 1986; Devoto et al., Development 122:3371-3380, 1996) in blocking solution for overnight at 4° C. Staining was detected by using Alexa Fluor(R) 594 goat anti-mouse IgG (H+L) (1:200; Invitrogen) in blocking solution for 4 hours at room temperature (Birely et al., Dev. Biol. 280:162-176, 2005).

[5] = tested on: myotubes derived from atrogin-1 knockout mice (−/−); assay: Myotube diameter and morphology, myotubes from atrogin-1 knockout mice; assay type: cell-based, mouse
Description: as §1

[6] = tested on: zebrafish atrogin-1; assay: Zebrafish atrogin-1 protein by Western blotting; assay type: in vivo, zebrafish (Danio rerio); conditions: 12 hours; for atrogin-1 expression in zebrafish embryos: 2.5 μM compound alone
Description: Western blotting: Zebrafish embryos were homogenized in SDS sample buffer (30 embryos/30 μL of sample buffer) with microfuge pestle until the lysate became uniform in consistency and there was no longer stringy. The lysate was boiled for 5 minutes and centrifuged supernatant was processed for Western blotting (Hanai et al., J. Cell Biol. 158:529-539, 2002). […] (GAPDH) antibody was from Santa Cruz Biotechnology.

[7] = perillyl alcohol 1.0 mM for 24 hours, wildtype myotubes
[8] = lovastatin 24 hours, wildtype cultures
[9] = 2.5 μM compound with lovastatin, 24 hours, myotube culture
[10] = mevalonate 100 μM + lovastatin 1 μM, 24 hours

With `CC(=O)N[C@@H](CSC/C=C(\C)CC/C=C(\C)CCC=C(C)C)C(=O)O` [AFC, N-acetyl-S-farnesyl-L-cysteine] the “atrogin-1 mRNA expression” value ([1]; 24 hours) was “no effect”, the “myotube diameter / myotube integrity” value ([2]; 30 μM compound, 24 hours, wildtype myotubes) was “no effect” and the atrogin-1 protein expression ([3]; 24 hours) was “no effect”.

For `C=C(C)[C@@H]1CC=C(CO)CC1` [Perillyl alcohol, perillyl alcohol], the “muscle fibers in zebrafish embryos” value ([4]; 0.1 to 1.0 mM perillyl alcohol for 12 hours) was “dramatic thinning of muscle fibers and morphologic damage”, the “atrogin-1 mRNA levels” value [1, 7] was “induction” and the damage of myotubes [2, 7] was “marked damage”. The atrogin-1 protein levels [3, 7] was “induction”.

With `CC(=O)N[C@@H](CSC/C=C(\C)CC/C=C(\C)CC/C=C(\C)CCC=C(C)C)C(=O)O` [AGGC, N-acetyl-S-geranylgeranyl-L-cysteine] the “atrogin-1 mRNA expression” value ([1]; 24 hours) was “induction”, the atrogin-1 protein expression ([3]; 24 hours) was “induction” and the effect on myotubes ([5]; 30 μM AGGC, 24 hours, atrogin-1 knockout myotubes) was “resistant to this reagent”.

`CC[C@H](C)C(=O)O[C@H]1C[C@@H](C)C=C2C=C[C@H](C)[C@H](CC[C@@H]3C[C@@H](O)CC(=O)O3)[C@H]21` [lovastatin] was tested, and the “muscle phenotypes (longitudinal muscle fiber staining, myosin heavy chain antibody)” value ([4]; lovastatin alone, zebrafish in vivo model) was “clear dose-dependent muscle phenotypes”, the “lovastatin concentration giving class 2 changes (fiber thinning, attenuation of MHC staining)” value ([4]; zebrafish embryos, higher concentrations) was 0.05 to 0.5 µM and the “lovastatin concentration giving class 1 changes (bowing, gap formation, fiber disruption)” value ([4]; zebrafish embryos, low concentration) was 0.025 to 0.05 µM. The “lovastatin concentration giving class 3 changes (irregular somite boundries)” value ([4]; zebrafish embryos, maximal concentration) was 1.0 to 5.0 µM, the “atrogin-1 mRNA levels” value [1, 8] was “dose-dependent increase” and the myotube diameter ([2]; 0.5 to 1.0 μM lovastatin for 24 hours, wildtype myotubes) was “dose-dependent reduction in myotube diameter”. For the same molecule, the atrogin-1 protein levels [3, 8] was “dose-dependent increase” and the myotube diameter ([5]; 0.5 to 1.0 μM lovastatin for 24 hours, atrogin-1 knockout cultures) was “resistant to lovastatin-induced reduction in myotube diameter”.

For `CC(C)=CCC/C(C)=C/CC/C(C)=C/CC/C(C)=C/CO` [geranylgeranol], the “fiber diameter in zebrafish embryos” value ([4]; 12 hours) was “neither 2.5 μM farnesol nor 2.5 μM geranylgeranol alone had any effect”, the “fiber damage in zebrafish embryos” value ([4]; 2.5 μM compound with lovastatin, 12 hours) was “reduced the degree” and the “atrogin-1 expression in zebrafish embryos” value [6] was “neither 2.5 μM farnesol nor 2.5 μM geranylgeranol alone had any effect”. For the same molecule, the “degree of atrogin-1 induction in zebrafish embryos” value ([6]; 2.5 μM compound with lovastatin) was “reduced the degree”, the “atrogin-1 expression in myotube culture” value ([1]; 24 hours) was “neither 2.5 μM farnesol nor 2.5 μM geranylgeranol alone had any effect” and the “degree of atrogin-1 mRNA induction” value [1, 9] was “reduced the degree”. For the same molecule, the “fiber diameter in myotube culture” value ([2]; 24 hours) was “neither 2.5 μM farnesol nor 2.5 μM geranylgeranol alone had any effect”, the “fiber damage in myotube culture” value ([2]; 2.5 μM compound with lovastatin, 24 hours) was “reduced the degree” and the “degree of atrogin-1 protein induction” value [3, 9] was “reduced the degree”.

With `CC(C)=CCCC(C)=CCCC(C)=CCO` [farnesol] the “fiber diameter in zebrafish embryos” value ([4]; 12 hours) was “neither 2.5 μM farnesol nor 2.5 μM geranylgeranol alone had any effect”, the “atrogin-1 expression in zebrafish embryos” value [6] was “neither 2.5 μM farnesol nor 2.5 μM geranylgeranol alone had any effect” and the “atrogin-1 expression in myotube culture” value ([1]; 24 hours) was “neither 2.5 μM farnesol nor 2.5 μM geranylgeranol alone had any effect”. The “fiber diameter in myotube culture” value ([2]; 24 hours) was “neither 2.5 μM farnesol nor 2.5 μM geranylgeranol alone had any effect”.

With `CC(O)(CCO)CC(=O)O` (stereo not shown) [mevalonate] the “development of zebrafish myofiber damage” value ([4]; 100 μM mevalonate + 0.05 to 1.0 μM lovastatin, 12 hours) was “completely prevented”, the “zebrafish atrogin-1 induction” value ([6]; 100 μM mevalonate + 0.05 to 1.0 μM lovastatin) was “completely prevented” and the “atrogin-1 mRNA induction caused by lovastatin” value [1, 10] was “completely prevented”. For the same molecule, the “reduction of myotube diameter caused by lovastatin” value [2, 10] was “completely prevented”, the “effect on the muscle cultures when administered alone” value ([2]; mevalonate 100 μM alone, 24 hours) was “no effect” and the “atrogin-1 protein induction caused by lovastatin” value [3, 10] was “completely prevented”.
